Tested on: IL-12 induced STAT4 phosphorlyation mediated by TYK2/JAK2
Experiment: IL-12 Induced pSTAT4 in Human PBMC
Type: cell-based
Details: 1.7 ng/mL IL-12 for 30 minutes
How it was run: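 pSTAT4 and total STAT4 quantified by MSD in lysates of cryopreserved human PBMC after 30-minute stimulation with 1.7 ng/mL IL-12 (final). Compound was added 1 hr beforehand at 37° C, 0.1% DMSO final.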

SMILES	IC50 [µM]	IC50 (0.5 h) [µM]
CNc1cc(Nc2cccn(-c3ccc(C)nc3)c2=O)nc2c(C(=O)NC3CCC3(F)F)cnn12 (centres unmarked) [Compound I-324]	< 0.1	–
CNc1cc(Nc2cccn([C@H]3CC[C@@H]3O)c2=O)nc2c(C(=O)N[C@@H]3CC[C@@]3(C)OC)cnn12 [Compound I-377]	< 0.1	–
CNc1cc(Nc2cccn([C@H]3CC[C@H](OC)CC3)c2=O)nc2c(C(=O)N[C@H]3CC[C@@H]3F)cnn12 [Compound I-225]	< 0.1	–
CNc1cc(Nc2cccn([C@@H]3CCOC[C@@H]3OC)c2=O)nc2c(C(=O)NC3CCC3(F)F)cnn12 (some centres unmarked) [Compound I-336]	< 0.1	–
CNc1cc(Nc2cccn([C@@H]3CCOC[C@@H]3OC)c2=O)nc2c(C(=O)N[C@@H]3CCC3(F)F)cnn12 [Compound I-338]	< 0.1	–
CNc1ccc(-c2cc(NC)n3ncc(C(=O)N[C@H]4CC[C@H]4F)c3n2)n2ccnc12 [Compound I-784]	< 0.1	–
CNc1cc(Nc2cccn([C@H]3CCCC[C@H]3O)c2=O)nc2c(C(=O)N[C@H]3CC[C@]3(C)OC)cnn12 [Compound I-424]	< 0.1	–
CNc1cc(Nc2cccn(-c3ccccn3)c2=O)nc2c(C(=O)N[C@H]3CC[C@@H]3F)cnn12 [Compound I-201]	< 0.1	–
CNc1cc(Nc2cccn(C3CCC[C@@](C)(OC)C3)c2=O)nc2c(C(=O)N[C@@H]3C[C@@H]3F)cnn12 (some centres unmarked) [Compound I-130]	< 0.1	–
CNc1cc(Nc2cccn([C@H]3CCCC[C@H]3O)c2=O)nc2c(C(=O)N[C@@H]3CC[C@H]3F)cnn12 [Compound I-214]	< 0.1	–
CNc1cc(Nc2cccn([C@H]3CCC[C@@H](C#N)C3)c2=O)nc2c(C(=O)N[C@H]3CCC3(F)F)cnn12 [Compound I-331]	< 0.1	–
CNc1cc(Nc2cccn([C@@H]3CCC[C@@H](OC)C3)c2=O)nc2c(C(=O)N[C@H]3CC[C@@H]3F)cnn12 [Compound I-228]	< 0.1	–
CNc1cc(Nc2cccn([C@H]3CCCOC3)c2=O)nc2c(C(=O)N[C@H]3CC[C@@H]3F)cnn12 [Compound I-198]	< 0.1	–
CNc1cc(Nc2cccn(C3COC3)c2=O)nc2c(C(=O)NC3CCC3(F)F)cnn12 (centres unmarked) [Compound I-280]	< 0.1	–
CNc1cc(Nc2cccn([C@H]3[C@@H]4COC[C@@H]43)c2=O)nc2c(C(=O)N[C@@H]3CC[C@H]3F)cnn12 [Compound I-208]	< 0.1	–
CNc1cc(Nc2cccn([C@@H]3CCC[C@](C)(OC)C3)c2=O)nc2c(C(=O)N[C@@H]3C[C@@H]3F)cnn12 [Compound I-131]	< 0.1	–
CNc1cc(Nc2cccn([C@H]3CCCC[C@H]3O)c2=O)nc2c(C(=O)NC3CC[C@@H]3F)cnn12 (some centres unmarked) [Compound I-212]	0.1 to 0.5	–
CNc1cc(Nc2cccn([C@@H]3CCCOC3)c2=O)nc2c(C(=O)NC3CCC3(F)F)cnn12 (some centres unmarked) [Compound I-315]	< 0.1	–
CNc1cc(Nc2cccn(-c3ccc(C)nc3)c2=O)nc2c(C(=O)N[C@@H]3C[C@H]3OC)cnn12 [Compound I-34, N-((1R,2R)-2-Methoxycyclopropyl)-5-((6′-methyl-2-oxo-2H-[1,3′-bipyridin]-3-yl)amino)-7-(methylamino)pyrazolo[1,5-a]pyrimidine-3-carboxamide]	–	< 0.1
CNc1cc(Nc2cccn([C@@H]3CCC[C@@H](OC)C3)c2=O)nc2c(C(=O)NC3CC[C@@H]3F)cnn12 (some centres unmarked) [Compound I-227]	< 0.1	–
CNc1cc(Nc2cccn(C(C)C)c2=O)nc2c(C(=O)NC3CC[C@@H]3F)cnn12 (mixture of isomers) [Compound I-145]	< 0.1	–
CNc1cc(Nc2cccn([C@H]3CC[C@H](OC)CC3)c2=O)nc2c(C(=O)NC3CC[C@@H]3F)cnn12 (some centres unmarked) [Compound I-224]	< 0.1	–
CNc1cc(Nc2cccn([C@H]3C[C@@H]3F)c2=O)nc2c(C(=O)NC3CC[C@@H]3F)cnn12 (stereo partly drawn) [Compound I-148, N-((trans-1,2)-2-Fluorocyclobutyl)-5-((1-((1S,2S)-2-fluorocyclopropyl)-2-oxo-1,2-dihydropyridin-3-yl)amino)-7-(methylamino)pyrazolo[1,5-a]pyrimidine-3-carboxamide]	–	< 0.1
CNc1cc(Nc2cccn([C@@H]3CCC[C@H](C#N)C3)c2=O)nc2c(C(=O)N[C@@H]3CC[C@H]3OC)cnn12 [Compound I-260]	< 0.1	–

Further lines, results first:

IC50 [µM]	IC50 (0.5 h) [µM]	SMILES
< 0.1	–	CNc1cc(Nc2cccn([C@H]3C[C@@H]3OC)c2=O)nc2c(C(=O)N[C@H]3CC[C@@H]3F)cnn12 [Compound I-158]
< 0.1	–	CNc1cc(-c2cn([C@H]3CCOC[C@@H]3F)c3ncccc23)nc2c(C(=O)N[C@H]3CC[C@@H]3OC)cnn12 [Compound I-802]
0.5 to 1	–	CNc1cc(-c2cn(C(C)C)c3nnccc23)nc2c(C(=O)N[C@H]3CC[C@H]3O)cnn12 [Compound I-1000]
–	< 0.1	CNc1cc(-c2cnc3n([C@H]4CCOC4)cccc2-3)nc2c(C(=O)NC3CC[C@@H]3OC)cnn12 (stereo partly drawn) [Compound I-994, N-(2-methoxycyclobutyl)-7-(methylamino)-5-(7-((S)-tetrahydrofuran-3-yl)-7H-pyrrolo[2,3-b]pyridin-3-yl)pyrazolo[1,5-a]pyrimidine-3-carboxamide]
< 0.1	–	CNc1cc(-c2cn(C3COC3)c3ncccc23)nc2c(C(=O)NC3CCC3(F)F)cnn12 (centres unmarked) [Compound I-673]
< 0.1	–	CNc1cc(-c2cn([C@H]3CCOC[C@H]3OC)c3ncccc23)nc2c(C(=O)NC3CC[C@@H]3F)cnn12 (some centres unmarked) [Compound I-546]
< 0.1	–	CNc1cc(-c2cn([C@@H]3CCOC3)c3ncccc23)nc2c(C(=O)NC3CC[C@@H]3OC)cnn12 (some centres unmarked) [Compound I-609]
< 0.1	–	CNc1cc(-c2cn([C@@H]3CCOC[C@H]3F)c3ncccc23)nc2c(C(=O)NC3CC[C@@H]3OC)cnn12 (some centres unmarked) [Compound I-652]
< 0.1	–	CNc1cc(-c2cn([C@H]3COC[C@@H]3OC)c3ncccc23)nc2c(C(=O)N[C@H]3CC[C@H]3F)cnn12 [Compound I-529]
< 0.1	–	CNc1cc(-c2cn([C@H]3COC[C@@H]3OC)c3ncccc23)nc2c(C(=O)NC3CC[C@@H]3OC)cnn12 (some centres unmarked) [Compound I-633]
< 0.1	–	CNc1cc(-c2cn(C3CN(C)C3)c3ncccc23)nc2c(C(=O)N[C@H]3CC[C@@H]3F)cnn12 [Compound I-514]
< 0.1	–	CNc1cc(-c2cn([C@@H]3CCOC[C@@H]3OC)c3ncccc23)nc2c(C(=O)N[C@H]3CC[C@@H]3F)cnn12 [Compound I-798]
–	< 0.1	CNc1cc(-c2cn([C@H]3CO[C@@H](COC)C3)c3ncccc23)nc2c(C(=O)N[C@H]3CC[C@@H]3OC)cnn12 [Compound I-1018, N-((1S,2S)-2-methoxycyclobutyl)-5-(1-(5-(methoxymethyl)tetrahydrofuran-3-yl)-1H-pyrrolo[2,3-b]pyridin-3-yl)-7-(methylamino)pyrazolo[1,5-a]pyrimidine-3-carboxamide]
< 0.1	–	CNc1cc(-c2cn([C@H]3CCOC3)c3ncccc23)nc2c(C(=O)N[C@H]3CC[C@@H]3OC)cnn12 [Compound I-613]
< 0.1	–	CNc1cc(-c2cn([C@H]3CCC4(C3)OCCO4)c3ncccc23)nc2c(C(=O)N[C@H]3CC[C@@H]3OC)cnn12 [Compound I-808]
–	< 0.1	CNc1cc(-c2cn([C@H]3C[C@@H](OC)C3)c3ncccc23)nc2c(C(=O)NC3CC[C@@H]3OC)cnn12 (stereo partly drawn) [Compound I-925, N-(2-methoxycyclobutyl)-5-(1-((1s,3S)-3-methoxycyclobutyl)-1H-pyrrolo[2,3-b]pyridin-3-yl)-7-(methylamino)pyrazolo[1,5-a]pyrimidine-3-carboxamide]
< 0.1	–	CNc1cc(-c2cn([C@H]3CCC4(C3)OCCO4)c3ncccc23)nc2c(C(=O)NC3CC[C@@H]3OC)cnn12 (some centres unmarked) [Compound I-671]
–	< 0.1	CNc1cc(-c2cn([C@H]3COC[C@H]3F)c3ncccc23)nc2c(C(=O)NC3CC[C@@H]3OC)cnn12 (stereo partly drawn) [Compound I-624, 5-(1-((3S,4S)-4-Fluorotetrahydrofuran-3-yl)-1H-pyrrolo[2,3-b]pyridin-3-yl)-N-((trans-1,2)-2-methoxycyclobutyl)-7-(methylamino)pyrazolo[1,5-a]pyrimidine-3-carboxamide]
< 0.1	–	CNc1cc(-c2cn([C@H]3COC[C@@H]3OC)c3ccccc23)nc2c(C(=O)N[C@H]3CC[C@@H]3OC)cnn12 [Compound I-742]
< 0.1	–	CNc1cc(-c2cn([C@H]3COC[C@@H]3OC)c3ncccc23)nc2c(C(=O)N[C@H]3CC[C@@H]3OC)cnn12 [Compound I-634]
< 0.1	–	CNc1cc(-c2cn([C@@H]3CCOC[C@@H]3OC)c3ncccc23)nc2c(C(=O)N[C@H]3CCC3(F)F)cnn12 [Compound I-703]
< 0.1	–	CNc1cc(Nc2cccn(-c3ncccc3F)c2=O)nc2c(C(=O)N[C@@H]3CC[C@H]3OC)cnn12 [Compound I-266]
< 0.1	–	CNc1cc(-c2cn([C@@H]3COC[C@H]3O)c3ncccc23)nc2c(C(=O)N[C@@H]3CC[C@H]3OC)cnn12 [Compound I-629]
0.1 to 0.5	–	CNc1cc(-c2cn([C@H]3COC[C@@H]3O)c3ncccc23)nc2c(C(=O)NC3CC[C@@H]3OC)cnn12 (some centres unmarked) [Compound I-630]
< 0.1	–	CNc1cc(-c2cn([C@@H]3CCOC[C@H]3F)c3ncccc23)nc2c(C(=O)N[C@H]3CC[C@H]3O)cnn12 [Compound I-918]
–	0.1 to 0.5	CNc1cc(-c2cn([C@@H]3CC(=O)N(C)C3)c3ncccc23)nc2c(C(=O)NC3CC[C@@H]3OC)cnn12 (stereo partly drawn) [Compound I-1016, N-(2-methoxycyclobutyl)-5-(1-((R)-1-methyl-5-oxopyrrolidin-3-yl)-1H-pyrrolo[2,3-b]pyridin-3-yl)-7-(methylamino)pyrazolo[1,5-a]pyrimidine-3-carboxamide]
< 0.1	–	CNc1cc(-c2cn([C@@H]3CN(C)C[C@H]3OC)c3ncccc23)nc2c(C(=O)N[C@H]3CC[C@@H]3OC)cnn12 [Compound I-646]
< 0.1	–	CNc1cc(-c2cn(CC(=O)N3CCCC3)c3ncccc23)nc2c(C(=O)N[C@H]3CC[C@@H]3OC)cnn12 [Compound I-965]
0.1 to 0.5	–	CNc1cc(-c2cn([C@@H]3CC3(F)F)c3ncccc23)nc2c(C(=O)N[C@@H]3COC[C@@H]3O)cnn12 [Compound I-713]

From US11414431B2, “Substituted pyrazolo[1,5-a]pyrimidines as TYK2 inhibitors” (Nimbus Lakshmi, Inc., priority 2018, dated 2022)
